Marks after values point to notes of the source that are not given here.
Experiments:
[1] = system: Wheat; test: Whole plant screen for plant growth regulator activity, wheat (WW); format: in vivo, Wheat (Timmo); conditions: for G = Greening effect / I = Interligular or internodal length reduction / R = Retardation / T = Tillering or side shooting: WW, 4000 ppm (4 kg/ha), visual score after 2-6 weeks; for T = Tillering or side shooting: * = decrease in tillering
Procedure: (§1) Compounds 1 to 3 in Table 1 were tested for plant growth regulator activity against five species for various growth effects relevant to plant growth regulation.
(§2) The plant species used in this screen are presented in Table II with the leaf stage at which they were sprayed. Each chemical was applied at 4000 ppm (4 kg/ha in a 1000 l/ha field volume) using a tracksprayer and a SS8004E (Teejet) nozzle.
(§3) After spray the plants were grown in a glasshouse with 25° C. day/22° C. night temperatures and supplementary lighting was supplied when necessary (from mercury vapour lamps), to provide a 16 hour photoperiod. The exception to this were the temperate cereals, wheat and barley which were grown in 16° C. day/13° C. night temperatures.
(§4) After 2-6 weeks in the glasshouse, depending on the time of year, the plants were visually assessed for morphological characteristics. Formulation blanks were used as controls to assess the plants.
(§5) Additional compounds in Table I were tested for plant growth regulator activity using the method of Example 60 except that Tomato was included in the test as an additional species. Tomato, Ailsa Craig, was grown in a single 3 inch pot in peat and treated at the 2 to 21/2 leaves growth stage. The results were presented in Table IV in which Tomato is indicated by the code TO and the Key is otherwise as for Table III.

[2] = system: Barley; test: Whole plant screen for plant growth regulator activity, barley (BR); format: in vivo, Barley (Atem); conditions: BR, 4000 ppm (4 kg/ha), visual score after 2-6 weeks; for T = Tillering or side shooting: * = decrease in tillering
Procedure: as §1, §2, §3, §4, §5

[3] = system: Tomato; test: Whole plant screen for plant growth regulator activity, tomato (TO); format: in vivo, Tomato (Ailsa Craig); conditions: 4000 ppm (4 kg/ha), visual score after 2-6 weeks
Procedure: as §2, §3, §4, §5
An astrisk (*) after a score under "T" (tillering) indicated a decrease in tillering.

| Compound | G = Greening effect [1] | I = Interligular or internodal length reduction [1] | R = Retardation [1] | T = Tillering or side shooting [2] | G = Greening effect [3] | I = Interligular or internodal length reduction [3] | R = Retardation [3] | T = Tillering or side shooting [1] | G = Greening effect [2] | I = Interligular or internodal length reduction [2] | R = Retardation [2] | A = Apical damage ([1]; 4000 ppm) |
| --- | --- | --- | --- | --- | --- | --- | --- | --- | --- | --- | --- | --- |
| CCCCCCCC(O)(c1cncnc1)C(C)C (centres unmarked) [Compound 26] | 1 (10-30%) | 1 (10-30%) | 2 (31-60%) | 2 (31-60%) | 1 (10-30%) | 1 (10-30%) | 2 (31-60%) |  |  |  |  |  |
| CCC(Cl)CC#CC(O)(c1cncnc1)C(C)(C)C (centres unmarked) [Compound 38] | 2 (31-60%) | 3 (61-100%) | 2 (31-60%) | 3 (61-100%) | 2 (31-60%) | 3 (61-100%) | 3 (61-100%) | 1 (10-30%) | 3 (61-100%) | 3 (61-100%) | 3 (61-100%) |  |
| CC(C)C(O)(CC1CCCC1)c1cncnc1 (centres unmarked) [Compound 27] | 2 (31-60%) | 2 (31-60%) | 2 (31-60%) | 2* | 2 (31-60%) | 2 (31-60%) | 2 (31-60%) |  |  |  |  |  |
| CC(C)(C)/C=C/C(O)(c1cncnc1)C(C)(C)CF (centres unmarked) [Compound 49, 3-fluoro-2,2-dimethyl-1-(3,3-dimethylbut-1-ene)-1-(pyrimidin-5-yl)-propan-1-ol] | 1 (10-30%) | 2 (31-60%) | 2 (31-60%) | 3 (61-100%) | 1 (10-30%) | 1 (10-30%) | 2 (31-60%) | 1 (10-30%) |  |  |  |  |
| CC(C)CC#CC(O)(c1cncnc1)C1CC1 (centres unmarked) [Compound 56] | 2 (31-60%) | 3 (61-100%) | 2 (31-60%) | 3 (61-100%) | 1 (10-30%) | 1 (10-30%) | 1 (10-30%) | 1 (10-30%) | 3 (61-100%) | 3 (61-100%) | 3 (61-100%) |  |
| CC(C)(C)C(O)(C#CCCCl)c1cncnc1 (centres unmarked) [Compound 36] | 2 (31-60%) | 3 (61-100%) | 2 (31-60%) | 3 (61-100%) | 2 (31-60%) | 2 (31-60%) | 2 (31-60%) | 1 (10-30%) | 3 (61-100%) | 3 (61-100%) | 3 (61-100%) |  |
| CC(C)(C)/C=C/C(O)(c1cncnc1)C(C)(C)C (centres unmarked) [Compound 39] | 1 (10-30%) | 3 (61-100%) | 3 (61-100%) | 3 (61-100%) | 2 (31-60%) | 3 (61-100%) | 3 (61-100%) | 2 (31-60%) |  | 3 (61-100%) | 3 (61-100%) |  |
| CC(C)(C)C(O)(C#CCCCCCl)c1cncnc1 (centres unmarked) [Compound 37] | 2 (31-60%) | 3 (61-100%) | 2 (31-60%) | 3 (61-100%) |  |  |  | 1 (10-30%) | 3 (61-100%) | 3 (61-100%) | 3 (61-100%) |  |
| CCCCC(O)(c1cncnc1)C(C)(C)C (centres unmarked) [Compound 35] |  |  |  | 3 (61-100%) |  | 2 (31-60%) | 2 (31-60%) |  |  |  |  | 2* |
